The test system of series [1] is GP2D cells. The series is described as follows: Cancer Cell Line Proliferation (CellTiter-Glo) GP2D. In kind it is cell-based. The conditions noted are these: 72 hr, read-out: CTG(IC50) ABS-72H(nM) GP2D. The method, then:
(§1) AGS, SW1990, and GP2D cells were plated in 96-well tissue culture plates at 4,000 cells/well and incubated at 37° C./5% CO2 for 72 hr in 100 μl of media. 3-fold serial dilutions of each test compound were prepared ranging from 20 µM to 1.02 nM. Each cell line was then treated with test compounds at various concentrations with a final concentration of 0.5% DMSO/well, and then incubated at 37° C./5% CO2 for 72 hr. 100 μl of CellTiter-Glo® Reagent (Promega Corporation, Madison, WI) was added to each well and processed according manufacturer's protocol. Results were analyzed and IC50 values were calculated in GraphPad 7 software.
(In general: Cellular ATP, detected with luciferase, serves as a proxy for viable cell number.)

For series [2], the system named is AGS cells. In words: Cancer Cell Line Proliferation (CellTiter-Glo) AGS. The series is classed as cell-based. The conditions noted are these: Homo sapiens, 72 hr, read-out: CTG(IC50) ABS-72H(nM) AGS. The method, then: as §1, with “The following cancer cell lines were employed: AGS gastric carcinoma [heterozygous […]](ATCC, CRL-1739); A-427 lung carcinoma [heterozygous G12D](ATCC, HTB-53); ASPC1 pancreatic adenocarcinoina [homozygous […]](ATCC, CRL-1682) and SW1990 pancreatic adenocarcinoma [homozygous G12D](ATCC CRL-2172). Cell lines were cultured essentially according to ATCC recommendations. AGS,” for “AGS,”

Series [3] in a line: Oral Bioavailability in CD-1 mice. In kind it is in vivo. The note with it: mouse, blood; male CD-1 mice, single oral dose, LC-MS/MS; read-out: % F (mean oral bioavailability). The method, then:
CD-1 mice were randomly assigned to 6 groups with 3 male mice in each compound group. Compounds were orally administered (P0) in a single dose to each mouse in its group. Blood samples were taken within 72 hours. Bioavailability (F %) was determined and by liquid chromatography-mass spectrometry (LC-MS/MS).

For series [4], the system named is SW1990 cells. In words: Cancer Cell Line Proliferation (CellTiter-Glo) SW1990. The series is classed as cell-based. The conditions noted are these: Homo sapiens, 72 hr, read-out: CTG(IC50) ABS-72H(nM) SW1990. The method, then: as §1, with “The following cancer cell lines were employed: AGS gastric carcinoma [heterozygous […]](ATCC, CRL-1739); A-427 lung carcinoma [heterozygous G12D](ATCC, HTB-53); ASPC1 pancreatic adenocarcinoina [homozygous […]](ATCC, CRL-1682) and SW1990 pancreatic adenocarcinoma [homozygous G12D](ATCC CRL-2172). Cell lines were cultured essentially according to ATCC recommendations. AGS,” for “AGS,”

The target of series [5] is T1, KRAS(G12D)/SOS1 (Homo sapiens, UniProt P01116, G12D).
T1 construct: purchased Cisbio 63ADK000CB17PEH
The series is described as follows: KRAS(G12D)/SOS1 Homogeneous Time-Resolved Fluorescence (HTRF) Assay. The note with it: absence of GTP, 4° C. for 3 hr. In kind it is binding. The method, then:
Binding of test compounds to KRAS(G12D) target protein, which in turn blocks KRAS(G12D) interaction with the SOS1 protein, was measured in the absences of GTP by homogeneous time-resolved fluorescence using the KRAS-G12D/SOS1 Binding Assay Kit (Cisbio, 63ADK000CB17PEH), following the manufacturer's instructions, except as noted. 3-fold serial dilutions of each test compound were prepared ranging from 20 µM to 1.02 nM. The test compound was mixed and incubated with reaction components, incubated in a sealed plate at 4° C. for 3 hr and fluorescence was measured using a PerkinElmer Envision plate reader. The KRAS(G12D)-SOS1 IC50 values (the concentration of 50% of the maximal inhibition) were calculated using GraphPad Prism 7 software.
Background: In TR-FRET formats the signal depends on donor and acceptor labels being close together.

T1 sequence (P01116 1-188 isoform P01116-2 G12D): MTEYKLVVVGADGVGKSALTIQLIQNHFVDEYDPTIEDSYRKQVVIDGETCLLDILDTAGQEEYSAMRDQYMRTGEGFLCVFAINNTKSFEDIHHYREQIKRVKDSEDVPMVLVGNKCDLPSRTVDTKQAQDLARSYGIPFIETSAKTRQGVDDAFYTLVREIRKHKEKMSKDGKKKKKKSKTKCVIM

As to `C#Cc1c(F)ccc2cc(O)cc(-c3nc(OC)c4c(N5CC6CCC(C5)N6)nc(OCC(=C)CN5CC6CC6C5)nc4c3F)c12` (centres unmarked) [Example 1, 4-{2-[(2-{3-azabicyclo[3.1.0]hexan-3-ylmethyl}prop-2-en-1-yl)oxy]-4-{3,8-diazabicyclo[3.2.1]octan-3-yl}-8-fluoro-5-methoxypyrido[4,3-d]pyrimidin-7-yl}-5-ethynyl-6-fluoronaphthalen-2-ol], the IC50 in series [1], in series [2], in series [4] and in series [5] was below 100 nM each time. Further, in series [3], the bioavailability is 10.6%.
As for `C#Cc1c(F)ccc2cc(O)cc(-c3nc(OC)c4c(N5CC6CCC(C5)N6)nc(OCC(CN5CC6CC6C5)=C(C)C)nc4c3F)c12` (centres unmarked) [Example 2, 4-{2-[(2-{3-azabicyclo[3.1.0]hexan-3-ylmethyl}-3-methylbut-2-en-1-yl)oxy]-4-{3,8-diazabicyclo[3.2.1]octan-3-yl}-8-fluoro-5-methoxypyrido[4,3-d]pyrimidin-7-yl}-5-ethynyl-6-fluoronaphthalen-2-ol], the IC50 in series [1], in series [2], in series [4] and in series [5] was below 100 nM throughout. The bioavailability in series [3] is 12.1%.
As to `C#Cc1c(F)ccc2cc(O)cc(-c3ncc4c(N5CC6CCC(C5)N6)nc(OCC(=C)CN5CCC(F)CC5)nc4c3F)c12` [Example 3], the IC50 in series [1], in series [2], in series [4] and in series [5] was below 100 nM throughout.
Turning to `[2H]C([2H])([2H])Oc1nc(-c2cc(O)cc3ccc(F)c(C#C)c23)c(F)c2nc(OCC(=C)CN3CC4CC4C3)nc(N3CC4CCC(C3)N4)c12` (centres unmarked) [Example 4], the IC50 in series [1], in series [2], in series [4] and in series [5] was below 100 nM each time. Moreover, the bioavailability in series [3] is 1.7%.
Regarding `C#Cc1c(F)ccc2cc(O)cc(-c3nc(OC)c4c(N5CC6CCC(C5)N6)nc(OCC(=C)CN5CC6C(F)C6C5)nc4c3F)c12` (centres unmarked) [Example 5], the IC50 in series [1], in series [2], in series [4] and in series [5] was below 100 nM each time. Moreover, the bioavailability in series [3] amounted to 7.7%.
As to `C#Cc1c(F)ccc2cc(O)cc(-c3nc(OC)c4c(N5CC6CCC(C5)N6)nc(OCC(CN5CC6CC6C5)=C(F)F)nc4c3F)c12` (centres unmarked) [Example 6], the IC50 in series [1], in series [2] and in series [4] was below 100 nM throughout.
Take `C#Cc1c(F)ccc2cc(O)cc(-c3nc(OC)c4c(N5CC6CCC(C5)N6)nc(OCC(=CCC)CN5CC6CC6C5)nc4c3F)c12` (centres unmarked) [Example 7]: the IC50 in series [1] and in series [2] was 100 to 1000 nM each time.
On to `[2H]C([2H])([2H])Oc1nc(-c2cc(O)cc3ccc(F)c(C#C)c23)c(F)c2nc(OCC(=C)CN3CC4C(F)C4C3)nc(N3CC4CCC(C3)N4C(=O)C(F)(F)F)c12` (centres unmarked) [Example 8], for which the half-inhibitory concentration (IC50) in series [1] and in series [2] was 100 to 1000 nM in each case.
Take `C#Cc1c(F)ccc2cc(O)cc(-c3nc(OC)c4c(N5CC6CCC(C5)N6)nc(OC/C(=C\C)CN5CC6CC6C5)nc4c3F)c12` (centres unmarked) [Example 9]: the half-maximal inhibitory concentration (IC50) in series [1] and in series [2] was below 100 nM throughout.
As for `C#Cc1c(F)ccc2cc(N)cc(-c3nc(OC)c4c(N5CC6CCC(C5)N6)nc(OCC(=C)CN5CC6CC6C5)nc4c3F)c12` (centres unmarked) [Example 10], the IC50 is below 100 nM in series [1] and 100 to 1000 nM in series [2].
With `C#Cc1c(F)ccc2cc(O)cc(-c3nc(OC)c4c(N5CC6CCC(C5)N6)nc(OC/C(=C/CC)CN5CC6CC6C5)nc4c3F)c12` (centres unmarked) [Example 11], the IC50 in series [1] and in series [2] was below 100 nM each time.
Turning to `C#Cc1c(F)ccc2cc(O)cc(-c3nc(OC)c4c(N5CC6CCC(C5)N6)nc(OC/C(=C\CC)CN5CC6CC6C5)nc4c3F)c12` (centres unmarked) [Example 12], the IC50 is below 100 nM in series [1] and 100 to 1000 nM in series [2].
As to `C#Cc1c(F)ccc2cc(O)cc(-c3nc(OC)c4c(N5CC6CCC(C5)N6)nc(OC/C(=C\C(F)(F)F)CN5CC6CC6C5)nc4c3F)c12` (centres unmarked) [Example 13], the IC50 in series [1] and in series [2] was 100 to 1000 nM throughout.
With `C#Cc1c(F)ccc2cc(O)cc(-c3nc(OC)c4c(N5CC6CCC(C5)N6CC#N)nc(OCC(CN5CC6CC6C5)=C(C)C)nc4c3F)c12` (centres unmarked) [Example 14], the IC50 in series [1] and in series [2] was below 100 nM throughout.
Take `C#Cc1c(F)ccc2cc(O)cc(-c3nc(OC)c4c(N5CC6CCC(C5)N6)nc(OC/C(CN5CC6CC6C5)=N/OC)nc4c3F)c12` (centres unmarked) [Example 15]: the concentration for half-maximal inhibition (IC50) in series [1] and in series [2] was below 100 nM each time.
For `C#Cc1c(F)ccc2cc(O)cc(-c3nc(OC)c4c(N5CC6CCC(C5)N6)nc(OC/C(CN5CC6CC6C5)=N\OC)nc4c3F)c12` (centres unmarked) [Example 16], the IC50 in series [1] and in series [2] was below 100 nM each time.
Consider `C#Cc1c(F)ccc2cc(O)cc(-c3nc(OC)c4c(N5CC6CCC(C5)N6)nc(OC/C(=C\C#N)CN5CC6CC6C5)nc4c3F)c12` (centres unmarked) [Example 18], for which, in series [2], the IC50 lay within 100 to 1000 nM.
For the compound `C#Cc1c(F)ccc2c(F)c(O)cc(-c3nc(OC)c4c(N5CC6CCC(C5)N6)nc(OCC(CN5CC6CC6C5)=C(C)C)nc4c3F)c12` (centres unmarked) [Example 19], the half-inhibitory concentration (IC50) is below 100 nM in series [1] and 100 to 1000 nM in series [2].

One may read the IC50 as the concentration at which inhibition is half-maximal. A word on the bioavailability: it is dose-corrected exposure relative to a reference, in per cent.

The record behind these values is patent publication US20260200945A1, “4-(3,8-DIAZABICYCLO[3,2,1]OCTAN-3-YL)-PYRIDO[4,3-D]PYRIMIDINE DERIVATIVES AS INHIBITORS OF THE KRAS (G12D) MUTANT ONCOPROTEIN FOR THE TREATMENT OF CANCER” (Ranok Therapeutics (Hangzhou) Co. Ltd., priority 2022, published 2026).
